The results in this text go back to ChEMBL document CHEMBL5096216, “Rational Design, Synthesis, and Biological Evaluation of Novel S1PR2 Antagonists for Reversing 5-FU-Resistance in Colorectal Cancer” (J Med Chem, 2022).

Series [1] has as its system SW620/5-FU. The series is described as follows: Induction of apoptosis in human SW620/5-FU cells assessed as viable cells at 10 uM incubated for 24 hrs by Annexin-V/PI staining based flow cytometry assay (reference value: 94.3%). The class given is functional. To be noted: read-out: Activity. Background: Flow cytometry measures light scatter and fluorescence of single cells or particles in a stream.

Series [2] has as its system HT-29. The series is described as follows: Reversal of 5-FU resistance in human HT-29 cells assessed as fold reduction in 5-Fluorouracil IC50 at 2 uM incubated for 48 hrs. The class given is functional.
The nature of series [3]: Metabolic stability in rat liver homogenate assessed as compound remaining at 1 mg/ml measured after 48 hrs by HPLC analysis. It counts as ADME, tissue-based. To be noted: read-out: Stability.
For series [4], the system named is SW620/5-FU. The series is described as follows: Induction of apoptosis in human SW620/5-FU cells assessed as early apoptotic cells at 10 uM incubated for 24 hrs in presence of 5-FU by Annexin-V/PI staining based flow cytometry assay (reference value: 2.73%). The class given is functional.
The test system of series [5] is SW620/5-FU. Kind of series: Antitumor activity against human SW620/5-FU cells xenografted in nude mouse assessed as tumor wight at 5 mg/kg/day, iv in presence of 5-FU (reference value: 1.3 +/-0.6 g). It counts as functional.
Series [6] deals with SW620/5-FU. The series is described as follows: Reversal of 5-FU resistance in human SW620/5-FU cells assessed as reduction in cell viability incubated for 48 hrs in presence of 5-FU by MTT assay. It counts as functional, cell-based. Background: Tetrazolium assays rely on reduction of a dye to a coloured formazan, in cell work by metabolically active cells.
The test system of series [7] is HT-29. The series is described as follows: Upregulation of H3K27me3 expression in 5-FU resistant human HT-29 cells incubated for 12 hrs by Western blot analysis. The class given is functional, cell-based. The settings on record: dose 2.5-20 µM, DDE = dose-dependent effect. (A western blot detects proteins with antibodies after separation by electrophoresis.)
Series [8] concerns SW620/5-FU. Kind of series: Induction of apoptosis in human SW620/5-FU cells assessed as early apoptotic cells at 20 uM incubated for 24 hrs by Annexin-V/PI staining based flow cytometry assay (reference value: 2.73%). It counts as functional.
The subject of series [9] is SW620/5-FU. Kind of series: Induction of apoptosis in human SW620/5-FU cells assessed as viable cells at 20 uM incubated for 24 hrs in presence of 5-FU by Annexin-V/PI staining based flow cytometry assay (reference value: 94.3%). It counts as functional. The settings on record: read-out: Activity.
Series [10] has as its system SW620/5-FU. The series is described as follows: Induction of apoptosis in human SW620/5-FU cells assessed as late apoptotic cells at 10 uM incubated for 24 hrs by Annexin-V/PI staining based flow cytometry assay (reference value: 2.97%). It counts as functional.

What is called IC50 is the concentration that gives 50% inhibition. Take `CCC(CC)CN1CCN(C(=O)Nc2cc(Oc3ccc(F)cc3)cc(Oc3ccc(C(=O)NC)cc3)c2)CC1`: in the series on SW620/5-FU [1], the viability at 10 µM came out at 93.8%. Besides, in the series with HT-29 [2], the “fold change (FC)” value stood at 66. Also, the remaining at 48 h, 1 mg/ml in series [3] is 68.9%. Besides, the Activity is 4.41% with SW620/5-FU [4]; 0.5 g with SW620/5-FU [5]; “Dde” in the series on HT-29 [7]; 3.76% with SW620/5-FU [8]; 2.76% in the series on SW620/5-FU [10]. In addition, the IC50 with SW620/5-FU [6] was found to be 1.99 µM. The viability at 20 µM with SW620/5-FU [9] came out at 64.2%.
